Results taken from patent publication US8906897B2, “Antimicrobial agents based on hemin derivatives” (Obschestvo S Ogranichennoi Otvetstvennostiyu …, priority 2009, dated 2014).

What was measured:
human leukocytes = assay: Cytotoxic activity against human leukocytes; conditions: for toxic effect on human blood leukocytes (in words): concentrations of up to 1 mM, 3 h
Method: Total leukocytes were isolated from human blood by unforced sedimentation using freshly collected venous blood from a healthy donor.
Blood (10 mL) added with 10 units/mL heparin was exposed for 2.5 h in the dark at a temperature of 15 to 18° C. A light-colored liquid supernatant (4 mL) was collected over the layer of sedimenting erythrocytes, washed three times with balanced Hanks's salt solution, and resuspended in the RPMI-1640 medium (added with 8% fetal bovine serum, 2 mM L-glutamine, and 10 mM HEPES; hereinafter, the complete medium).
The concentrations of leukocytes and erythrocytes in the suspension were determined by counts in Goryachev's chamber, after which the suspension was adjusted to a leukocyte concentration of (1.0±0.1)×10^6 cells/mL with the complete medium.
To determine the cytotoxicity of the tested compounds for human leukocytes, the cell suspension was transferred to wells of sterile 96-well plates, tested compounds were added with serial twofold dilutions (the range of tested concentrations was from 3.2 to 100 μM for GrD and gramicidin S; from 8 to 500 μM for compound XIII; and from 8 to 1000 μM for compounds V, VI, VII, VIII, IX, X, XI, XIV, XV, XIX, and Hem), and the mixture was carefully stirred. The experiment was performed in two replicas.
As controls served cells added with an equivalent amount of the solvent in which tested compounds were prepared, namely: water for compounds VII and X; an aqueous solution of DMSO for compounds V, VI, VIII, and IX; and DMSO for GrD, gramicidin S, Hem, XI, XIII, XIV, XV, and XIX. An additional control was an additive-free leukocyte suspension.
Cells were incubated with tested compounds for 3 h (37° C., 5% CO2, 100% humidity). Leukocyte death values were quantified using fluorescence microscopy. Staining with propidium iodide (it permeates only into dead cells nuclei) and Hoechst 33342 (it stains all nuclei) was used to recognize dead and living cells. Cells were incubated for 15 min in plates with propidium iodide and Hoechst 33342 (37° C., 5% CO2), and then the plates were placed under a microscope for analysis.
The dead cell fraction was derived from the fluorescence images of cells obtained in the blue (Hoechst 33342) and red (propidium iodide) spectral ranges using an Axio Observer (Zeiss, Germany) fluorescence microscope equipped with a 10× objective lens (Plan-Neofluar 10×/0.3). The following sets of fluorescence filters were used. For propidium iodide: a 530/585-nm bandpass excitation filter, a 600-nm cut-off dichroic minor, and a 615-nm longpass barrier filter for analysis. For Hoechst 33342: a 359/372-nm bandpass excitation filter, a 395-nm cut-off dichroic mirror, and a 397-nm longpass barrier filter for analysis.
A digital camera recorded three types of cell images: (a) an image in the transmitted white light; (b) a blue fluorescence image obtained with UV excitation, and (c) a red fluorescence image obtained with green light excitation. At least four fields of view were photographed per well in various regions of a well.

[1] = system: Enterococcus faecium No. 569; assay: Specific activity against resistant bacterial strains; type: cell-based; conditions: Ent. faecium 569; 24 h, 36° C.
[2] = system: Micrococcus luteus BKM Ac-2230; assay: Antibacterial activity (MIC/MBC), serial dilutions in liquid MH medium; type: cell-based; conditions: for MIC: 20 h, MH medium
Method: (§1) The antibacterial activity of compounds was determined against Bacillus subtilis BKM B-501, Staphylococcus aureus 209P, Enterococcus faecalis BKM B-871, and Micrococcus luteus BKM Ac-2230 strains (acquired from the All-Russia Collection of Microorganisms at the Institute for Biochemistry and Physiology of Microorganisms, Russian Academy of Sciences). The main parameters characterizing the antibacterial activity are the minimal inhibitory concentration (MIC) and minimal bactericidal concentration (MBC). […] MBC is the least concentration that causes the death of all cells.
(§2) MIC was quantified by inhibiting culture growth in a liquid medium with serial dilutions of compounds using a modified procedure [Amsterdam, D., “Susceptibility Testing of Antimicrobials in Liquid Media,” in Antibiotics in Laboratory Medicine, Ed. by Lorian, V., 4th ed., Baltimore: Williams and Wilkins, 1996, pp. 52-111].
(§3) Bacteria were cultured and tests were carried out on an MH liquid medium (Mueller-Hinton medium: a dry extract of beef broth, 4 g/L; starch, 1.5 g/L; casein hydrolyzate, 17.5 g/L; Sigma-Fluka Catalog No. 70192) at 37° C., 100% humidity, and under stirring. Cultures (4th through 7th receeding post-thawing) in the exponential growth phase were used for tests.
(§4) Therefore, a correction for absorption was applied in estimating the optical density of bacterial suspensions for each compound with account for its concentration in the well.
(§5) The protocol for experimental antibacterial activity determination for tested compounds was as follows. A cryovial with the test strain culture (Bacillus subtilis BKIVI B-501, Staphylococcus aureus 209P, Enterococcus faecalis BKM B-871, or Micrococcus luteus BKIVI Ac-2230) in a medium with 7% DMSO stored in liquid nitrogen, was rapidly defrosted, and 1.5 mL of the fresh MH medium was inoculated with 100 μL of the cell suspension. Cells were grown for one day at 37° C. and stirred on an orbital shaker at 150 rpm. The morphologic features of the strain and the absence of contamination with foreign bacteria were verified by: (a) inoculation on an agarized (15 g/L agar) MH medium and observation of the shape and color of the grown colonies and (b) examination of characteristic morphologic features under a microscope (Mikmed-2, LOMO, Russia) equipped with a 40× objective lens. Further bacteria were cultured in 1 mL of the liquid MH medium at 37° C. under stirring. The cells were reseeded every day. Cell cultures were used in tests starting with 3rd reseeding and ending with 6th one.
(§6) For testing, 5 μL of a bacterial suspension in the stationary growth phase was transferred to 1 mL of a sterile MH medium and incubated until the exponential growth phase was attained (3 to 5 h, 37° C., stirring at 150 rpm). To estimate the microorganisms concentration, the optical density (A) of the resulting bacterial culture was measured at a wavelength of 595 nm. The value of A=0.2 measured from a […] portion of the cell suspension in a 96-well plate, with a correction for the medium absorption applied, was set to correspond to 4×10^8 cells/mL for both strains used. Taking into account the cell concentration measurements, the suspension was diluted with the MH medium to a concentration of from 5×10^4 to 1×10^5 cells/mL and transferred to a sterile 96-well plate in an amount of 100 μL, per well. Then, the cells were added with tested compounds and twofold serial dilutions of these compounds in plate's wells were made.
(§7) The controls used were: 100 μL of an additive-free bacterial culture (four wells); a bacterial culture added with 1% DMSO or water in the same volume as in the wells with the maximal concentration of the tested compounds (four wells); and 100 μL of the sterile MH medium without bacteria and without tested compounds for control of occasional contamination in the plate (four wells).

[3] = system: Bacillus subtilis BKM B-501; assay: as above; type: cell-based; conditions: for MIC: 20 h, MH medium
Method: as §1, §2, §3, §4, §5, §6, §7

[4] = system: Enterococcus faecalis BKM B-871; assay: as above; type: cell-based; conditions: for MIC: 20 h, MH medium
Method: as §1, §2, §3, §4, §5, §6, §7

[5] = system: Staphylococcus aureus 209P; assay: as above; type: cell-based; conditions: for MIC: 20 h, MH medium
Method: as §1, §2, §3, §4, §5, §6, §7

In the case of `C=CC1=C(C)c2cc3[n-]c(cc4nc(cc5[n-]c(cc1n2)c(C)c5CCC(=O)NCCO)C(CCC(=O)NCCO)=C4C)c(C)c3C=C.[Cl-].[Fe+3]` [Compound XIV, Protohemin IX 6,7-bis-N-(2-Hydroxyethyl)amide], the “Death of leukocytes in the presence of 1 mM of compound” value (“Death of leukocytes” for short) (human leukocytes; 3 h incubation) is reported as 17.5 ± 0.7%, the “concentration at which a weak toxic effect on leukocytes appears” value (human leukocytes; 3 h incubation) is reported as about 1000 µM and the “MICs for hemin derivatives against Gr+ strains” value (from here on “MICs for hemin derivatives”) [1] is reported as over 5e-05 M. The MBC [2] was 1.6 µM, the MIC [2] was 0.8 µM and the MBC [3] was 6.3 ± 1.6 µM. The MIC [3] was 1.6 ± 0.4 µM, the MBC [4] was 100 µM and the MIC [4] was 25 µM. For the same compound, the MBC [5] was 3.2 µM and the MIC [5] was 1.6 µM.

For `C=CC1=C(C)c2cc3[n-]c(cc4nc(cc5[n-]c(cc1n2)c(C)c5CCC(=O)N[C@@H](CCC(=O)N[C@@H](CCCNC(=N)N)C(=O)OC)C(=O)N[C@@H](CCCNC(=N)N)C(=O)OC)C(CCC(=O)N[C@@H](CCC(=O)N[C@@H](CCCNC(=N)N)C(=O)OC)C(=O)N[C@@H](CCCNC(=N)N)C(=O)OC)=C4C)c(C)c3C=C.[Cl-].[Fe+3]` [Compound XVIII, 6,7-bis[bis(N^α-L-Arginyl Methyl Ester)-L-Glutamyl]-Protohemin IX], the “MICs for hemin derivatives” value [1] was 6.25e-06 M, the MBC [2] was 12.5 µM and the MIC [2] was 3.1 µM. For the same compound, the MBC [3] was “Not reached”, the MBC [4] was >50^3 μM and the MIC [4] was 12.5 µM. For the same compound, the MBC [5] was >50^2 μM.

In the case of `C=CC1=C(C)c2cc3[n-]c(cc4[n-]c(cc5nc(cc1n2)C(C)=C5C=C)c(C)c4CCC(=O)O)c(CCC(=O)O)c3C.[Cl-].[Fe+3]` [Hem, hemin], the “Death of leukocytes” value (human leukocytes; 3 h incubation) is reported as 40 ± 2%, the “Death of leukocytes” value (human leukocytes; 3 h incubation, listed as hemin) is reported as 40% and the “MICs for hemin derivatives” value [1] is reported as over 1e-05 M. For the same compound, the MBC [2] was 25 µM, the MIC [2] was 12.5 µM and the MBC [3] was 50 ± 13 µM. It also gave an MIC [3] of 13 ± 4 µM, an MBC [4] of over 1000 µM and an MIC [4] of 1000 µM. For the same compound, the MBC [5] was 200 µM and the MIC [5] was 100 µM.

`C=CC1=C(C)c2cc3[n-]c(cc4nc(cc5[n-]c(cc1n2)c(C)c5CCC(=O)N[C@@H](CO)C(=O)OC)C(CCC(=O)N[C@@H](CO)C(=O)OC)=C4C)c(C)c3C=C.[Cl-].[Fe+3]` [VIII] was tested, and the “Death of leukocytes” value (human leukocytes; 3 h incubation) was 6.1 ± 0.3%, the “toxic effect on human blood leukocytes (in words)” value (human leukocytes) was “did not cause the death” and the “MICs for hemin derivatives” value [1] was >5.0. ×10^−5 M. It also gave an MBC [2] of 12.5 µM, an MBC [3] of 9 ± 4 µM and an MIC [3] of 6.3 ± 1.6 µM. The MBC [4] was 25 µM, the MIC [4] was 12.5 µM and the MBC [5] was 200 µM.

`C=CC1=C(C)c2cc3[n-]c(cc4nc(cc5[n-]c(cc1n2)c(C)c5CCC(=O)N[C@@H](CCCNC(=N)N)C(=O)OC)C(CCC(=O)N[C@@H](CCCNC(=N)N)C(=O)OC)=C4C)c(C)c3C=C.[Cl-].[Fe+3]` [VII] was tested, and the “Death of leukocytes” value (human leukocytes; 3 h incubation) was 8.0 ± 0.8%, the “toxic effect on human blood leukocytes (in words)” value (human leukocytes) was “did not cause the death” and the “MICs for hemin derivatives” value [1] was over 5e-05 M. The MBC [2] was 6.3 µM, the MBC [3] was 3.1 ± 0.8 µM and the MBC [4] was 400 µM. It also gave an MIC [4] of 50 µM and an MBC [5] of 200 µM.
